Measurements reported in patent US20220160686A1, “MACROCYCLIC AZOLOPYRIDINE DERIVATIVES AS EED AND PRC2 MODULATORS” (Fulcrum Therapeutics, Inc., priority 2019, published 2022).

Key:
[1] = tested on: HUDEP2 cells; assay: Fetal hemoglobin (HbF) upregulation assay of HUDEP2 cells; assay type: cell-based
Experimental: HUDEP2 cells were maintained and passaged every 2-3 days by seeding 300,000 viable cells/mL in a culture flask containing HUDEP2 Growth Media comprised of StemSpan SFEM (Stemcell Technologies #09650), 50 ng/mL human stem cell factor (Stemcell Technologies #78062.2), 3 IU/mL erythropoietin (ThermoFisher #PHC2054), 1 μM dexamethasone (Sigma #D2915), and […] doxycycline (Sigma #D3072). HUDEP2 cells were differentiated towards erythroid lineage by seeding at 25,000 viable cells/well in 96-well V-Bottom plates (Corning #3894) containing 135 μL HUDEP2 Differentiation Media comprised of Iscove's Modified Dulbecco's Medium (Stemcell Technologies #36150), 1% L-glutamine (ThermoFisher #25030081), 2% penicillin-streptomycin (ThermoFisher #15140122), 330 μg/mL holo-human transferrin (Sigma #T0665), 2 IU/mL heparin (Stemcell Technologies #07980), 10 μg/mL recombinant human insulin (Sigma #91077C), 3 IU/mL erythropoietin (ThermoFisher #PHC2054), 100 ng/mL human stem cell factor (Stemcell Technologies #78062.2), and 4% fetal bovine serum (ThermoFisher #A3160502). Chemical probes for treatment were resuspended in 100 μL of Iscove's Modified Dulbecco's Medium (Stemcell Technologies #36150) to a 10× concentration, and 15 μL of 10× concentrated chemical probes were added to each well for a total well volume of 150 μL. HUDEP2 cells were left to incubate at 37° C., 85% relative humidity, and 5% CO2 for 3 days. On Day 3, assay plates containing HUDEP2 cells were centrifuged at 500×g for 5 minutes. After centrifugation cells were pelleted to the bottom of the well, and 100 μL of media aspirated from the well without disturbing the cells. Then 90 μL of fresh HUDEP2 Differentiation Media and 10 μL of 10× concentrated chemical probes were added back each well. For the H3K27me3 assay, cells were harvested on Day 4 of treatment. The HUDEP2 cells were centrifuged at 500×g for 5 minutes and all media was aspirated from the well. Then 150 μL of phosphate buffered saline (ThermoFisher #10010023) was added to each well to resuspend the cells. Finally, 50 μL of the HUDEP2 cell suspension from each well was transferred to a poly-d-lysine coated 384-well plate (Corning Cat #356697) and centrifuged at 1000×g for 5 minutes before proceeding to ICC Fix and Stain Protocol. Assay plates for the HbF assay were returned to the incubator until Day 5, where the media was exchanged and chemical probes added exactly as on Day 3. On Day 7 of the HbF assay, the HUDEP2 cells were harvested in the same manner as described for the H3K27me3 assay before proceeding to ICC Fix and Stain Protocol.
The Fix and Stain Protocol was the same for HEK293T, HUDEP2, and Primary CD34+ cell assays except the specific primary and secondary antibodies used for detection. Following 4 days of compound treatment, the respective plates were washed once with 25 μL of PBS (ThermoFisher #10010023) and fixed with 25 μL of 4% paraformaldehyde (ThermoFisher #28908) for 10 minutes at room temperature. The plates were then washed three times with 25 μL of PBS. Subsequent to that, the cells were permeabilized and blocked for 1 hour at room temperature in 25 μL of Perm/Block buffer comprised of IX PBS, 1% bovine serum albumin (ThermoFisher #A3294), 10% fetal bovine serum (ThermoFisher #A3160502), 0.3M glycine (Sigma #G7126), and 0.1% tween-20 (Sigma #P7949). This was followed by additional washing (three times) of the plates with 25 μL of 0.1% tween in PBS.
Plates for the HbF assay were treated similarly as described above except that HbF Primary Antibody (ThermoFisher #MHFH01-4) diluted 1:40 in 0.1% tween-20 in PBS and Hoescht (ThermoFisher #H3570) diluted 1:2000 in 0.1% tween-20 in PBS were used for detection.
(§1) The plates were then scanned on the CX7 at 10× magnification, and 9 images were acquired per well. The software algorithm then identified nuclei and calculated a total nuclei count using the Hoechst staining on channel 1. […]

[2] = tested on: Human Mobilized Peripheral Blood Primary CD34+ cells; assay: Fetal hemoglobin (HbF) upregulation assay of CD34+ cells; assay type: cell-based
Experimental: Human Mobilized Peripheral Blood Primary CD34+ cells were expanded from thaw by seeding 100,000 viable cells/mL in a culture flask containing CD34+ Expansion Media comprised of StemSpan SFEMII (Stemcell Technologies #09655), 1% erythroid expansion supplement (Stemcell Technologies #02692), and 1 μM dexamethasone (Sigma #D2915). The cells were supplemented by adding an additional IX culture volume of CD34+ Expansion Media on Day 3 after thaw. After 7 days of expansion, Primary CD34+ cells were differentiated towards erythroid lineage by seeding at 15,000 viable cells/well in 96-well V-Bottom plates (Corning #3894) containing 135 μL CD34+ Differentiation Media comprised of StemSpan SFEMII (Stemcell Technologies #09655), 3% normal human serum (Sigma #H4522), 3 IU/mL erythropoietin (ThermFisher #PHC2054). Chemical probes for treatment were resuspended in 100 μL of Iscove's Modified Dulbecco's Medium (Stemcell Technologies #36150) to a 10× concentration, and 15 μL of 10× concentrated chemical probe was added to each well for a total well volume of 150 μL. Primary CD34+ cells were left to incubate at 37° C., 85% relative humidity, and 5% C02 for 3 days. On Day 3, assay plates containing Primary CD34+ cells were centrifuged at 500×g for 5 minutes. After centrifugation cells were pelleted to the bottom of the well, and 100 μL of media aspirated from the well without disturbing the cells. Then 90 μL of fresh CD34+ Differentiation Media and 10 μL of 10× concentrated chemical probes were added back each well. For the H3K27me3 assay, cells were harvested on Day 4 of treatment. The Primary CD34+ cells were centrifuged at 500×g for 5 minutes and all media was aspirated from the well. Then 150 μL of phosphate buffered saline (ThermoFisher #10010023) was added to each well to resuspend the cells. Finally, 50 μL of the Primary CD34+ cell suspension from each well was transferred to a poly-d-lysine coated 384-well plate (Corning Cat #356697) and centrifuged at 1000×g for 5 minutes before proceeding to ICC Fix and Stain Protocol. Assay plates for the HbF assay were returned to the incubator until Day 5, where the media was exchanged and chemical probes added exactly as on Day 3. On Day 7 of the HbF assay, the Primary CD34+ cells were harvested in the same manner as described for the H3K27me3 assay before proceeding to ICC Fix and Stain Protocol. […]
as §1, with “1. After nuclei were identified, the algorithm calculated the average nuclear intensity of the H3K27me3 or HbF staining on channel 2.” for “1.”

Structure (SMILES)	EC50 [1] [nM]	EC50 [2] [nM]
Cc1cn(-c2cc3c(n4cnnc24)NCc2c(F)ccc4c2[C@@H](CO4)CO3)cn1 [Compound 15, (S)-12-fluoro-4-(4-methyl-1H-imidazol-1-yl)-7a,8,13,14-tetrahydro-7H-[1,2,4]triazolo[4′,3′:1,6]pyrido[3,2-b]benzofuro[4,3-fg][1,4]oxazonine]		100 to 500
Fc1cncnc1-c1cc2c(n3cnnc13)NCc1c(F)ccc3c1[C@@H](CO3)CO2 [Compound 164, (S)-12-fluoro-4-(5-fluoropyrimidin-4-yl)-7a,8,13,14-tetrahydro-7H-[1,2,4]triazolo[4′,3′:1,6]pyrido[3,2-b]benzofuro[4,3-fg][1,4]oxazonine]		< 25
COc1ncc(-c2cc3c(n4cnnc24)NCc2c(F)ccc4c2[C@H](CO4)CO3)cn1 [Example 30]	100 to 500	
CS(=O)(=O)c1ccc(-c2cc3c(n4cnnc24)NCc2c(F)ccc4c2C(CO4)CO3)cc1 (stereo not shown) [Example 36]	50 to 100	
Cc1cc(C#N)ccc1-c1cc2c(n3cnnc13)NCc1c(F)ccc3c1[C@H](CO3)CO2 [Example 49]	50 to 100	

Continued, values first:

EC50 [1] [nM]	EC50 [2] [nM]	Structure (SMILES)
50 to 100		Cc1ncc(-c2cc3c(n4cnnc24)NCc2c(F)ccc4c2[C@@H](CO4)CO3)c(C)n1 [Compound 13, (S)-4-(2,4-dimethylpyrimidin-5-yl)-12-fluoro-7a,8,13,14-tetrahydro-7H-[1,2,4]triazolo[4′,3′:1,6]pyrido[3,2-b]benzofuro[4,3-fg][1,4]oxazonine]
< 25	< 25	Cn1nccc1-c1cc2c(n3cnnc13)NCc1c(F)ccc3c1C(CO3)CO2 (stereo not shown) [Example 17]
< 25	50 to 100	Cn1nc(C(F)(F)F)cc1-c1cc2c(n3cnnc13)NCc1c(F)ccc3c1[C@H](CO3)CO2 [Example 115]
